These results are taken from patent US5958947A, “DNA-affinic hypoxia selective cytotoxins” (priority 1996, dated 1999).

For data set [1], the system named is V79 Chinese hamster lung cells. Particulars: intracellular concentration for an SER of 1.6, hypoxic cells; no experiment described; cited from earlier work.
For data set [2] the following is noted: in vivo; cited from earlier work.
The conditions of data set [3]: cited from earlier work.
A further data set deals with DNA. Particulars: cited from earlier work.
Another data set relates to mammalian cell cultures. The note with it: cited from earlier work.
The subject of the next data set is hypoxic cells. Particulars: cited from earlier work.
Data set [4] is described as follows: Partition coefficient in octanol/water. The class given is physicochemical. Here is the method:
The partition coefficient of the hypoxia selective cytotoxins of the present invention were determined by the method of T. Fujita et al., J. Am. Chem. Soc., 86, 5175-5180 (1964), incorporated herein by reference.

The next data set concerns supercoiled DNA. Put plainly: DNA intercalation by agarose gel electrophoresis (mobility of supercoiled DNA). The class given is binding. The note with it: electrophoretic gel, up to millimolar concentrations. The text has this: An agarose gel electrophoresis technique was used to determine whether THNLA-1 intercalates DNA. Compounds that strongly intercalate DNA retard DNA mobility during agarose gel electrophoresis due to unwinding and extension of the dsDNA.

Data set [5] concerns V79 Chinese hamster lung cells. The data set can be described thus: Acute aerobic and hypoxic cytotoxicity (colony formation). Format: cell-based. The note with it: V79 cells, 1 hour, 37° C.; for IC50: Cricetulus griseus, V79, 1 h, hypoxia, 50% inhibition of clonogenicity. How it is done: (§1) Samples of V79 Chinese hamster lung cells used in the following experiments were prepared as follows. V79 cells, exponentially growing as monolayer cultures in RPMI 1640 medium (Mediatech) supplemented with 10% fetal calf serum, were trypsinized, centrifuged for 5 min, harvested, then suspended in 25 ml Erlenmeyer flasks fitted with rubber caps at 5×10^5 cells/ml (5 ml). Individual flasks either were shaken (100 rpm) at 37° C. under aerobic conditions or made hypoxic by gassing with a 95% N2 (nitrogen)/5% CO2 (carbon dioxide) humidified gas mixture for 1 hour.
(§2) To determine the fraction of surviving cells, samples were removed, diluted and plated to provide 2×10^2 to 2×10^4 cells/well on 60 mm Linbro multi-well plates (Flow Laboratories, McLean, Virginia). The plates were incubated at 37° C. for 6 days, stained with crystal violet and examined for colony formation. Colonies of 50 cells or greater were counted. Each plotted point in FIGS. 1 and 2 represent the mean of three or four replicate experiments.

Test in data set [6]: as above
The class given is cell-based, Chinese hamster. Particulars: chinese hamster, aerobic v79 cells, V79 cells, aerobic, 1 hour, 37° C.; 50% inhibition of clonogenicity. How it is done: as §1, §2

Data set [7] concerns V79 cells. Put plainly: Isoeffective to the oxygen dose (IsD). The note with it: Cricetulus griseus, V79, 1 h. Format: cell-based, Chinese hamster. The text has this: The survival fraction under hypoxic conditions (plotted versus compound concentration) meets the aerobic survival fraction (radiation toxicity) at the IsD. The IsD value is a useful indicator of the overall potency of a compound as a sensitizer and cytotoxin of hypoxic cells. IsD is especially useful when comparing different compounds for hypoxic cytotoxicity and radiosensitizing efficacy.
FIGS. 5 and 6 illustrate the IsD at 7.5 Gy (FIG. 5A) and 20 Gy (FIG. 5B). FIGS. 5A and 6A include a comparison to the prior art NLA-1 compound. V79 cells were irradiated at 7.5 Gy or 20 Gy after a 1 hour exposure under hypoxia (symbols) or air (straight line), at various drug concentrations. No toxicity or radiosensitization for any tested compound was observed under aerobic conditions over the tested concentration ranges. IsD values were calculated from the intersections of the survival fractions of the hypoxic curves with the survival fraction in air. All data points in FIGS. 5 and 6 represent the mean of two replicate experiments.

Data set [8] deals with V79 Chinese hamster lung cells. The data set can be described thus: Radiosensitization of V79 cells. Format: cell-based. The note with it: for EC (SER 1.6): Cricetulus griseus; for maximum SER value: hypoxic V79 cells, 100 μM for THNLA-1, non-toxic concentrations for others; for Therapeutic index (ThI): IC50/A,1h /C1.6: in vitro, V79 cells, hydrochloride. How it is done:
as §1
Radiosensitization studies were performed on V79 cells in a manner similar to the acute toxicity experiments, except that the survival fraction was determined after a predetermined radiation dose. […] One Gy is equal to 100 rads, wherein one rad is the quantity of ionizing radiation that results in the absorption of 100 ergs of energy per gram of irradiated material. Hypoxia was maintained throughout irradiation. […] Sensitization enhancement ratios (SER) were determined at a 10% survival level. […] The plotted points in FIGS. 3 and 4 represent the mean of 2 or 3 replicate experiments.

A further data set deals with human Topo II. The data set can be described thus: Topoisomerase II interaction (decatenation of kinetoplast DNA). The class given is biochemical. Particulars: up to 1 mM. How it is done: A Topo II assay kit (TopoGEN, Inc., Columbus, Ohio) also was used to assay the topoisomerase II--THNLA-1 interaction. […] Individual reaction mixtures were heated for 30 minutes at 37° C. on a heating block, and then 2 μl of a 10% SDS-proteinase K solution was added to each reaction mixture. The resulting reaction mixtures then were heated for an additional 30 minutes at 37° C. After addition of a 0.1 volume of loading buffer, the reaction mixtures were extracted with CHCl3 prior to submarine electrophoresis on a 1% agarose gel containing ethidium bromide (0.5 μg/ml).

The target in the next data set is T1, calf thymus Topo I (Bos taurus, UniProt F1MN93).
T1 construct: purchased TopoGEN, Inc., Columbus, Ohio; host or cells: calf thymus
T1 sequence (F1MN93 1-767): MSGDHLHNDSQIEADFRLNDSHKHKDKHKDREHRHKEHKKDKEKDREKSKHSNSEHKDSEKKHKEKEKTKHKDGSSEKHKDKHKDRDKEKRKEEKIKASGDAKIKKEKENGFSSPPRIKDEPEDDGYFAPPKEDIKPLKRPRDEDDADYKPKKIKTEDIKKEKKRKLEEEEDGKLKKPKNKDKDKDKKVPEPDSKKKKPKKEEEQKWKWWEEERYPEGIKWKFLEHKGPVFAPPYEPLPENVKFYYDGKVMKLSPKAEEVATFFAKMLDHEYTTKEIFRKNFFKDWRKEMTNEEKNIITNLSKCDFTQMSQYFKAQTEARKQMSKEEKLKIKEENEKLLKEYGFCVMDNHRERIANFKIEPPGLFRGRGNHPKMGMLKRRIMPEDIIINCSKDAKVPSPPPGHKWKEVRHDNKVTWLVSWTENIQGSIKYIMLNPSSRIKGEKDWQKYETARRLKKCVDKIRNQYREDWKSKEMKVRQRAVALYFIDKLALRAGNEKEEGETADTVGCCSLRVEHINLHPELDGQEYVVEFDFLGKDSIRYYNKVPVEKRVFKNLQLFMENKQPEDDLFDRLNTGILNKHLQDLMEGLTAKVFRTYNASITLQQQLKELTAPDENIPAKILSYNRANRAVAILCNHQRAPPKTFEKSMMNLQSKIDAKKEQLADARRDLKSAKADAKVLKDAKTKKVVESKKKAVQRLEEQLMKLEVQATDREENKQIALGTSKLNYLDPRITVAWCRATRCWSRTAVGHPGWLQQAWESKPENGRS
Put plainly: Topoisomerase I interaction (relaxation of supercoiled DNA). The class given is biochemical. How it is done:
In particular, a Topo I drug screening kit (TopoGEN, Inc., Columbus, Ohio) was used to assay the topoisomerase I THNLA-1 interaction. […] Camptothecin is a Topoisomerase I poison used as an anticancer drug. Camptothecin stabilizes the Topo I-DNA cleavable complex, and therefore prevents the resealing of DNA by Topo-I.
Individual reaction mixtures were heated for 30 minutes at 37° C. on a heating block, and then 2 μl of 10% SDS - proteinase K solution was added to each reaction mixture. The resulting reaction mixtures then were heated for an additional 30 minutes at 37° C. The reaction mixtures in a loading buffer were extracted with CHCl3 prior to submarine electrophoresis on a 1% agarose gel. The DNA bands were observed visually by staining with ethidium bromide (0.5 μg/ml).

For data set [9], the system named is V79 cells. The data set can be described thus: Chemosensitization to L-PAM or cis-DDP in V79 cells. The class given is cell-based, Chinese hamster. The note with it: V79 cells. Here is the method: L-PAM, also known as phenylalanine mustard and available from Sigma Chem. Co., St. Louis, Mo., first was dissolved in an ethanolic solution of HCl (0.5N). The ethanolic HCl solution was buffered with propylene glycol in a 1:9 ratio of ethanolic HCl solution to propylene glycol, and finally diluted 100 fold with suspension medium. cis-DDP, a platinum-based chemotherapeutic agent available from Sigma Chem. Co., St. Louis, Mo., was dissolved in water to a predetermined concentration.
Experiments using a simultaneous addition of the sensitizer and chemotherapeutic agent for 1 hour at 37° C. under aerobic conditions were also performed.
In all experiments, controls for the hypoxic cytotoxicity of the sensitizer and the toxicity of the chemotherapeutic alone were included. Survival curves were normalized for the hypoxic cytotoxicity of sensitizer in order to determine the dose modification factor (DMF), i.e., the ratio of chemotherapeutic agent concentrations required to reduce cell survival to a predetermined level (e.g., 0.5) alone or in combination with a sensitizer. Synergism between the chemotherapeutic agent and the chemosensitizer was determined using the fractional product concept which is applied in instances of independent action of drugs, or by isobologramic analysis. The results of the chemosensitization studies are illustrated in FIGS. 12-15.

[10] abbreviates: V79, 1 h, read-out: Hypoxic radiosensitizing potency: C1.6, concentration yielding an SER of 1.6, hypoxic V79 cells.
Where [11] appears, read: V79, read-out: Intracellular concentration at C1.6: C1.6i, hypoxic radiosensitization, V79 cells (tables).

What is called solubility is the dissolved amount per volume that the medium holds. What is called IC50 is the concentration that inhibits the measured activity by half.

“And” between values parts separate entries of the source, which are not always exact repeats. Equal entries are not always repeated. Structures can show the parent of a compound that is named as a salt. Where two headings read alike, the source gives them in different places.

`O=[N+]([O-])c1nccn1CC(O)CN1CCCCC1` (centres unmarked) [pimonidazole]: the “C1.6i of comparison sensitizers” value in [1] is listed as 0.69 mM. The “dose administrable to humans relative to MISO” value in data set [2] is given as “total dose limitation similar to MISO”.

`O=C(Cn1ccnc1[N+](=O)[O-])NCCO` [etanidazole]: in data set [2], the “dose administrable to humans relative to MISO” value was “about a threefold higher dose than MISO” and the neurotoxicity result is “less neurotoxic”.

As for `CN(C)CCCNc1c2ccccc2nc2cccc([N+](=O)[O-])c12` [nitracrine, 1-nitro-acridine], the metabolism in vivo result in data set [3] is “rapid metabolism”. In the data set on DNA, the “DNA dissociation kinetics / intercalation” value is recorded as “faster dissociation kinetics from DNA than the other nitroacridine isomers”. Moreover, the “potency as radiation sensitizer / hypoxia selective cytotoxin” value in the data set with mammalian cell cultures was “potent hypoxia selective cytotoxin and a radiation sensitizer”; in the data set on mammalian cell cultures (listed as 1-nitracrine) it was “twenty times more potent as a sensitizer than other nitracrine isomers tested”.

Turning to `O=[N+]([O-])c1nccn1CC(O)CN1CC1` (centres unmarked) [RSU-1069], in the data set with hypoxic cells (experimental systems), the “activity relative to MISO” value is recorded as “substantially greater activity than MISO”. Moreover, in the data set on hypoxic cells (in vitro), the “fold lower toxic concentration for hypoxic versus aerobic cells” value is roughly 100 fold.

`CN1CCc2nc3ccccc3c(NCCCn3ccnc3[N+](=O)[O-])c2C1` [MeN-THNLA-1, 10-[3-(2-nitroimidazolyl)propylamino]-2-methyl-1,2,3,4-tetrahydro-benzo[b]-1,6-naphthyridine hydrochloride]: the “Partition coefficient in octanol/water: PCo/w” value in data set [4] (hydrochloride) was 0.40 and 0.41. In addition, the “effect on mobility of supercoiled DNA” value with supercoiled DNA was “do not affect the mobility of supercoiled DNA”. The same compound gave a solubility in the data set “Water solubility” of roughly 20 mM. In addition, in data set [5], the midpoint of inhibition, the IC50, lay at 196 µM and the “Hypoxic selectivity (differential aerobic/hypoxic toxicity): IC50/A,1h /IC50/H,1h” value is 2.2. In data set [6], this compound had an IC50 at 1 h of 426 µM. The EC (isoeffective to oxygen at 20 Gy) in the data set with V79 cells [7] (read-out: Isoeffective to the oxygen dose at 20 Gy: IsD) was roughly 127 µM. The EC (SER 1.6) in data set [8] (setting [10]) amounted to 59 µM. The EC (SER 1.6) in data set [8] (setting [11]) came to 586 µM. In data set [8], the “maximum SER value” is “equal to OER” and the “Therapeutic index (ThI): IC50/A,1h /C1.6” value is given as “about 7”. Moreover, the relative radiosensitizing potency entry in [8] (on the basis of C1.6i values) was “more potent radiosensitizer than NLA-1, miso and pimonidazole”. The “inhibition of Topo II-induced decatenation of kinetoplast DNA” value in the data set with human Topo II was “did not inhibit the action of Topoisomerase II on kinetoplast DNA”. Besides, the “formation of nicked DNA with Topo I” value on calf thymus Topo I (in Topo I test) was “no formation of nicked DNA was observed”. Further, the “inhibition of Topo I-induced relaxation” value at calf thymus Topo I (supercoiled DNA) was “only partially inhibited Topo I”.

`O=[N+]([O-])c1nccn1CCCNc1c2c(nc3ccccc13)CCC2` [NLCPQ-1, 9-[3-(2-nitro-1-imidazolyl)propylamino]cyclopenten[b]quinoline hydrochloride]: the “Partition coefficient in octanol/water: PCo/w” value in data set [4] worked out at 0.30. The logP in data set [4] (read-out: Partition coefficient in octanol/water: PCo/w (converted)) was -0.523. Further, the solubility in “Water solubility” is roughly 11 mM. Moreover, the IC50 in data set [5] was 22 µM. The 50% inhibitory concentration (IC50) at 1 h in data set [6] came to 170 µM. The EC (isoeffective to oxygen at 7.5 Gy) with V79 cells [7] (read-out: Isoeffective to the oxygen dose at 7.5 Gy: IsD(7.5)) worked out at 25.5 µM. Besides, the values for the EC (SER 1.6) in [8] (setting [10]) and in data set [8] (setting [11]) were 7 µM and 209 µM, respectively. Besides, the “maximum SER value” in data set [8] was “equal to OER”. In addition, in data set [8], the “Therapeutic index (ThI): IC50/A,1h /C1.6” value was 25. Also, the “chemosensitization to L-PAM or cis-DDP” value in the data set with V79 cells [9] is reported as “strong chemosensitizers”.

For `COCC(O)Cn1ccnc1[N+](=O)[O-]` (centres unmarked) [MISO], the “C1.6i of comparison sensitizers” value in data set [1] is 0.70 mM. Besides, the neurotoxicity result in data set [2] is on record as “significant neurotoxicity”.
